Laboratory results from patent publication US11472769B2, “SSAO inhibitors and use thereof” (Eccogene (Shanghai) Co., Ltd., priority 2019, dated 2022).

Key:
recombinant hSSAO = recombinant hSSAO (Homo sapiens (Human), UniProt Q16853); experiment: SSAO Activity Assay (MAO-Glo assay kit); assay type: biochemical; settings: 40 μM substrate, 30 mins pre-incubation
In short: (§1)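 Substrate was 4 μM in MAO-B buffer for hMAO-B and 40 μM in MAO-A buffer for hSSAO and hMAO-A. Each enzyme first saw compound (0.1% DMSO vehicle) for 30 min at room temperature.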

recombinant hMAO-A = recombinant hMAO-A (Homo sapiens (Human), UniProt P21397); experiment: MAO-A activity assay (MAO-Glo assay kit); assay type: biochemical; settings: 40 μM substrate, 30 mins pre-incubation
Sequence of recombinant hMAO-A (P21397 whole entry): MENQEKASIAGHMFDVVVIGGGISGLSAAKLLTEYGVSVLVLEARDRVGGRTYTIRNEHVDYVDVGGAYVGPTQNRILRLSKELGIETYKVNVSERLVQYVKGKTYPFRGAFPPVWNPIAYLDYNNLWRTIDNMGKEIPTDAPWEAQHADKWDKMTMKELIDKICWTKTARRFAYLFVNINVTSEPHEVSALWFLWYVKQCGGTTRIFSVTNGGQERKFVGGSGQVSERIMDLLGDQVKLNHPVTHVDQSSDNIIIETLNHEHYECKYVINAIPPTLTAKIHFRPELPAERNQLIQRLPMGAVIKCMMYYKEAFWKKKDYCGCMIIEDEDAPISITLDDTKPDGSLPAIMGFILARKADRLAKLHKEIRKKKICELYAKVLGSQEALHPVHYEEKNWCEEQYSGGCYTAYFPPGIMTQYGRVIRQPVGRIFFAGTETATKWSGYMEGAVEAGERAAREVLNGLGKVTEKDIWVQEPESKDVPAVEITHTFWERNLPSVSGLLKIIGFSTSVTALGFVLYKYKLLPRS
In short: as §1

recombinant hMAO-B = recombinant hMAO-B (Homo sapiens (Human), UniProt P27338); experiment: MAO-B activity assay (MAO-Glo assay kit); assay type: biochemical; settings: 4 μM substrate, 30 mins pre-incubation
Sequence of recombinant hMAO-B (P27338 whole entry): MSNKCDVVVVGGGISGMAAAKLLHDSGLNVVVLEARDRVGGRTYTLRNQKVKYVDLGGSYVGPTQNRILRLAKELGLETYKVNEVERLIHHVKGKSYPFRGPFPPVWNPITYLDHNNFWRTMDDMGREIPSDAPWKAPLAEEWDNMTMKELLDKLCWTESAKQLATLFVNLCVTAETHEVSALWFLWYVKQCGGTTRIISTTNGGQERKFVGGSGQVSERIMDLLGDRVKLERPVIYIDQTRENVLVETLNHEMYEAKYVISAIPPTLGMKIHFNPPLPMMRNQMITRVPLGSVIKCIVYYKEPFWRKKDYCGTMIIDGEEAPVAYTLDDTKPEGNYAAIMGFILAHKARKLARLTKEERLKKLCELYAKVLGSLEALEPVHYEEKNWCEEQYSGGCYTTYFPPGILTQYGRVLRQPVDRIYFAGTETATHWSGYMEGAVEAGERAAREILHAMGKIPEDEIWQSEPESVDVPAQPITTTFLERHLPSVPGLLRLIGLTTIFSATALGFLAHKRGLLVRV
In short: as §1

[1] = Brain Kpuu assay (BBB assay and protein binding assay); assay type: in vivo; settings: ICR mice, 1 mg/kg IV, plasma and brain collected at 5 minutes after dosing; for Kp uu at 5 min: mouse, read-out: Kpuu (mouse, t = 5 min)
Description: For example, Brain Kpuu assay composed of Blood-Brain-Barrier (BBB) assay and protein binding assay, can be utilized. The protein binding assay comprises equilibrium dialysis against brain lysate and plasma to calculate fu(brain) and fu(plasma), respectively. The BBB assay can be conducted in experimental animals at 1 mg/kg IV dosage. After dosing with the compounds of the present application, plasma and brain samples can be collected to analyze compound concentration (Cplasma and Cbrain). The Kpuu value of the tested compounds can be calculated by the equation: […]
Brain Kpuu assay is composed of Blood-Brain-Barrier (BBB) assay and protein binding assay, which are conducted in ICR mice. Protein binding assays were performed in 96-well plates, using equilibrium dialysis against brain lysate and plasma to calculate fu(brain) and fu(plasma), respectively. BBB assays were conducted in mice at 1 mg/kg IV dosage. Plasma and brain samples were collected at 5 minutes after dosing to analyze compounds concentration (Cplasma and Cbrain). The Kpuu value of the tested compounds was calculated by the equation: […]

Sequence of recombinant hSSAO (Q16853 whole entry): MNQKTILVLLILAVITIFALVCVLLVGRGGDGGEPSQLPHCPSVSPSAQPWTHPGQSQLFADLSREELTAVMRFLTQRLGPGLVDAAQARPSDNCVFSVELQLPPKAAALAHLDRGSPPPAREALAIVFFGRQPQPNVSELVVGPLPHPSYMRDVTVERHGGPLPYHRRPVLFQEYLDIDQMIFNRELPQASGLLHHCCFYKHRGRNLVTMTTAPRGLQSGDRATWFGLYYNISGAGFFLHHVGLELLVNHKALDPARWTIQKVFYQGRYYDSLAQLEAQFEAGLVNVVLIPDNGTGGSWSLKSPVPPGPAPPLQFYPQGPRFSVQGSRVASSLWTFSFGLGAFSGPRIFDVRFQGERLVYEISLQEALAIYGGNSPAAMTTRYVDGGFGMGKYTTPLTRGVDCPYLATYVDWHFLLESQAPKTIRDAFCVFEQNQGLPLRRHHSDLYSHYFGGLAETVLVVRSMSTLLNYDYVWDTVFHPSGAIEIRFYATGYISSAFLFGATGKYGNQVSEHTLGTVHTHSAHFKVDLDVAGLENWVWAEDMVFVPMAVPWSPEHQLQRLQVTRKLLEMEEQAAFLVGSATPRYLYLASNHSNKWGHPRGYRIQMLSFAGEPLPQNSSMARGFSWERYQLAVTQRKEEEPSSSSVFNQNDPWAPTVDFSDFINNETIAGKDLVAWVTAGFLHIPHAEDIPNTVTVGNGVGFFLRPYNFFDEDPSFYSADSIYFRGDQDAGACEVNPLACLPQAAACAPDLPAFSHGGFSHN

SMILES	IC50 (recombinant hSSAO) [µM]	IC50 (recombinant hMAO-A) [µM]	IC50 (recombinant hMAO-B) [µM]	Kp uu at 5 min [1]	Kpuu (mouse, t = 5 min) [1]
CC1(C(=O)NC23CCC(CS(=O)(=O)c4ccc(OC/C(=C/F)CN)cc4)(CC2)CC3)CC1 [Compound 91, (E)-N-(4-(((4-((2-(aminomethyl)-3-fluoroallyl)oxy)phenyl)sulfonyl)methyl)bicyclo[2.2.2]octan-1-yl)-1-methylcyclopropane-1-carboxamide]	< 0.02	> 30	10 to 30	0.077	
NC/C(=C\F)COc1ccc(S(=O)(=O)CC23CCC(C(=O)NCC(F)(F)F)(CC2)CC3)cc1 [Compound 65, (E)-4-(((4-((2-(aminomethyl)-3-fluoroallyl)oxy)phenyl)sulfonyl)methyl)-N-(2,2,2-trifluoroethyl)bicyclo[2.2.2] octane-1-carboxamide]	< 0.02	> 30	10 to 30	0.018	
CN(C)C(=O)C12CCC(CS(=O)(=O)c3ccc(OC/C(=C/F)CN)cc3)(CC1)CC2 [compound 62, (E)-4-(((4-((2-(aminomethyl)-3-fluoroallyl)oxy)phenyl)sulfonyl)methyl)-N,N-dimethylbicyclo[2.2.2]octane-1-carboxamide]	0.02 to 0.1		10 to 30	0.034	
CC(C)(C)NC(=O)C12CCC(CS(=O)(=O)c3ccc(OC/C(=C/F)CN)cc3)(CC1)CC2 [Compound 70, (E)-4-(((4-((2-(aminomethyl)-3-fluoroallyl)oxy)phenyl)sulfonyl)methyl)-N-(tert-butyl)bicyclo[2.2.2]octane-1-carboxamide]	0.02 to 0.1	> 30	10 to 30	0.01	
CC(C)(C)NC(=O)c1ccc(OC/C(=C/F)CN)cc1.Cl [BI 1467335 (PXS-4728A), reference compound]					0.23
NC/C(=C\F)COc1ccc(S(=O)(=O)CC2CCN(C(=O)C3CCC3)CC2)cc1 [Compound 50, (E)-(4-(((4-((2-(aminomethyl)-3-fluoroallyl)oxy)phenyl)sulfonyl)methyl)piperidin-1-yl)(cyclobutyl)methanone]	0.02 to 0.1	> 30	> 30		
NC/C(=C\F)COc1ccc(S(=O)(=O)CC2CCN(C(=O)CC3CC3)CC2)cc1 [Compound 48, (E)-1-(4-(((4-((2-(aminomethyl)-3-fluoroallyl)oxy)phenyl)sulfonyl)methyl)piperidin-1-yl)-2-cyclopropylethan-1-one]	0.02 to 0.1	> 30	> 30		
NC/C(=C\F)COc1ccc(S(=O)(=O)CN2CCCCC2=O)cc1 [Compound 129, (E)-1-(((4-((2-(aminomethyl)-3-fluoroallyl)oxy)phenyl)sulfonyl)methyl)piperidin-2-one]	0.02 to 0.1	> 30	10 to 30		
NC/C(=C\F)COc1ccc(S(=O)(=O)CC23CCC(C(=O)NCC4CC4)(CC2)CC3)cc1 [Compound 66, (E)-4-(((4-((2-(aminomethyl)-3-fluoroallyl)oxy)phenyl)sulfonyl)methyl)-N-(cyclopropylmethyl)bicyclo [2.2.2]octane-1-carboxamide]	< 0.02	> 30	10 to 30		
CC(C)C(=O)NC12CCC(CS(=O)(=O)c3ccc(OC/C(=C/F)CN)cc3)(CC1)CC2 [Compound 80, (E)-N-(4-(((4-((2-(aminomethyl)-3-fluoroallyl)oxy)phenyl)sulfonyl)methyl)bicyclo[2.2.2]octan-1-yl)isobutyramide]	< 0.02	> 30	10 to 30		
CC(C)(C)CC(=O)N1CCC(CS(=O)(=O)c2ccc(OC/C(=C/F)CN)cc2)CC1 [Compound 42, (E)-1-(4-(((4-((2-(aminomethyl)-3-fluoroallyl)oxy)phenyl)sulfonyl)methyl)piperidin-1-yl)-3,3-dimethylbutan-1-one]	0.02 to 0.1	> 30	> 30		
NC/C(=C\F)COc1ccc(S(=O)(=O)CN2CCC3(CCCC3)C2=O)c(F)c1 [Compound 128, (E)-2-(((4-((2-(aminomethyl)-3-fluoroallyl)oxy)-2-fluorophenyl)sulfonyl)methyl)-2-azaspiro[4.4]nonan-1-one]	0.1 to 0.5	> 30	> 30		
CC1(C)COCC(=O)N1CS(=O)(=O)c1ccc(OC/C(=C/F)CN)cc1 [Compound 132, (E)-4-(((4-((2-(aminomethyl)-3-fluoroallyl)oxy)phenyl)sulfonyl)methyl)-5,5-dimethylmorpholin-3-one]	0.02 to 0.1	> 30	< 10		
CC1(C)CCC(=O)N1CS(=O)(=O)c1ccc(OC/C(=C/F)CN)cc1Cl [Compound 124, (E)-1-(((4-((2-(aminomethyl)-3-fluoroallyl)oxy)-2-chlorophenyl)sulfonyl)methyl)-5,5-dimethylpyrrolidin-2-one]	0.02 to 0.1	> 30	> 30		
CC1(C)CCN(CS(=O)(=O)c2ccc(OC/C(=C/F)CN)cc2)C1=O [Compound 125, (E)-1-(((4-((2-(aminomethyl)-3-fluoroallyl)oxy)phenyl)sulfonyl)methyl)-3,3-dimethylpyrrolidin-2-one]	0.02 to 0.1	> 30	< 10		
CC(C)NC(=O)C1CCC(CS(=O)(=O)c2ccc(OC/C(=C/F)CN)cc2)CC1 (centres unmarked) [Compound 144, (E)-4-(((4-((2-(aminomethyl)-3-fluoroallyl)oxy)phenyl)sulfonyl)methyl)-N-isopropylcyclohexane-1-carboxamide]	0.02 to 0.1	> 30	< 10		
NC/C(=C\F)COc1ccc(S(=O)(=O)CN2CCC3(CCCC3)C2=O)cc1 [Compound 127, (E)-2-(((4-((2-(aminomethyl)-3-fluoroallyl)oxy)phenyl)sulfonyl)methyl)-2-azaspiro[4.4]nonan-1-one]	0.1 to 0.5	> 30	< 10		
NC/C(=C\F)COc1ccc(S(=O)(=O)CC2CCN(C(=O)C3CC3)CC2)cc1 [Compound 44, (E)-(4-(((4-((2-(aminomethyl)-3-fluoroallyl)oxy)phenyl)sulfonyl)methyl)piperidin-1-yl)(cyclopropyl)methanone]	0.02 to 0.1	> 30	> 30	0.025	
NC/C(=C\F)COc1ccc(S(=O)(=O)CC2CCN(C(=O)CC(F)(F)F)CC2)c(F)c1 [Compound 59, (E)-1-(4-(((4-((2-(aminomethyl)-3-fluoroallyl)oxy)-2-fluorophenyl)sulfonyl)methyl)piperidin-1-yl)-3,3,3-trifluoropropan-1-one]	0.02 to 0.1	> 30	> 30		
NC/C(=C\F)COc1ccc(S(=O)(=O)CN2CCOCC2=O)c(F)c1 [Compound 131, (E)-4-(((4-((2-(aminomethyl)-3-fluoroallyl)oxy)-2-fluorophenyl)sulfonyl)methyl) morpholin-3-one]	0.02 to 0.1	> 30	> 30		
